Data as given in PubChem BioAssay (NCI).
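Growth conditions: 96-well plates. Treatment: test compound, 48 hours, 5 concentrations. Analysis: linear interpolation between bracketing concentrations; unreached endpoints set to highest concentration. Abbreviation: GI50, concentration required for 50% inhibition of growth. TGI denotes the concentration required for complete inhibition of growth.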

What was measured:
Assay in all cases: NCI-60 cell line screen, 48 h
[1] = tested on: HCT-116 colon
[2] = tested on: SK-MEL-28 melanoma
[3] = tested on: SF-268 CNS
[4] = tested on: KM12 colon
[5] = tested on: LOX IMVI melanoma
[6] = tested on: CCRF-CEM leukemia
[7] = tested on: NCI/ADR-RES ovarian
[8] = tested on: DU-145 prostate
[9] = tested on: EKVX NSCLC
[10] = tested on: UACC-257 melanoma

SMILES | GI50 [1] | TGI [1] | GI50 [2] | TGI [2] | GI50 [3] | TGI [3] | GI50 [4] | TGI [4] | GI50 [5] | TGI [5] | GI50 [6] | TGI [6] | GI50 [7] | TGI [7] | GI50 [8] | TGI [8] | GI50 [9] | TGI [9] | GI50 [10] | TGI [10]
Cc1cc2nc3c4ccccc4n(CCN(C)C)c3nc2cc1C | 0.488 µM | 11.3 µM | 2.09 µM | 4.73 µM | 1.45 µM | 5.86 µM | 1.93 µM | 9.8 µM | 0.748 µM | 3.68 µM | 1.99 µM | 13.6 µM | 1.39 µM | 12.7 µM | 2.07 µM | 11.8 µM | 2.23 µM | 7.32 µM | 1.94 µM | 5.16 µM
Cc1cc2c(C(C)C)c(O)c(O)c(C=O)c2c(O)c1-c1c(C)cc2c(C(C)C)c(O)c(O)c(C=O)c2c1O (tested in a mixture with another compound) | 0.455 µM | 1.61 µM | 1.64 µM | 3.64 µM | 1.06 µM | 3.26 µM | 0.394 µM | 1.51 µM | 1.16 µM | 2.54 µM | 0.546 µM | 13.7 µM | 0.825 µM | 2.56 µM | 1.12 µM | 3.07 µM | 0.473 µM | 3.18 µM | 1.79 µM | 4.12 µM
Brc1ccc(Br)nn1 | 1.48 µM | 2.84 µM | 1.42 µM | 2.76 µM | 1.9 µM | 5.04 µM | 12 µM | 26.1 µM | 1.41 µM | 2.88 µM | 0.404 µM | 3.65 µM | 2 µM | 5.78 µM | 3.73 µM | 13.4 µM | 8.17 µM | 24.7 µM | 1.72 µM | 3.89 µM
COC(=O)Nc1nc2ccc(Sc3ccccc3)cc2[nH]1 | 0.0771 µM | 10.1 µM | 0.387 µM | 15.5 µM | 1.44 µM | 26.9 µM | 0.0634 µM | 22.3 µM | 0.487 µM | 17.2 µM | 0.249 µM | > 100 µM | 0.0674 µM | 0.461 µM | 0.336 µM | 10.8 µM | 1.64 µM | 53.6 µM | 3.08 µM | > 66.8 µM
N#CC(C#N)=Cc1ccc(-c2ccc(-c3nc4ccccc4o3)cc2)o1 | 18.2 µM | 42.3 µM | > 100 µM | > 100 µM | 52 µM | > 100 µM | 19.4 µM | > 100 µM | 16.6 µM | 44.8 µM | 11.6 µM | > 100 µM | 20.8 µM | 50.1 µM | 36.5 µM | > 100 µM | > 100 µM | > 100 µM | > 100 µM | > 100 µM
CON | > 100 µM | > 100 µM | > 100 µM | > 100 µM | > 100 µM | > 100 µM | > 100 µM | > 100 µM | > 100 µM | > 100 µM | > 100 µM | > 100 µM | > 100 µM | > 100 µM | > 100 µM | > 100 µM | > 100 µM | > 100 µM | > 100 µM | > 100 µM
ClC1=C(Cl)C(Cl)=C(Cl)C1=Cc1ccc(Cl)cc1 | 0.237 µM | 0.638 µM | 1.4 µM | 2.8 µM | 0.419 µM | 1.1 µM | 0.844 µM | 2.38 µM | 0.233 µM | 0.71 µM | 0.33 µM | 2.47 µM | 0.366 µM | 2.15 µM | 0.629 µM | 2.07 µM | 0.816 µM | 3.08 µM | 1.37 µM | 3.3 µM
CC(=O)OCC(=O)C1(O)C(C)CC2C3C=C(C)C4=Cc5c(cnn5-c5ccccc5)CC4(C)C3C(O)CC21C (centres undefined) | 1.45 µM | 3.12 µM | 1.41 µM | 3.01 µM | 1.64 µM | 11.4 µM | 1.32 µM | 2.78 µM | 1.69 µM | 4.82 µM | – | > 100 µM | 1.94 µM | 8.73 µM | 1.93 µM | 5.74 µM | 1.48 µM | 13.1 µM | 2.96 µM | 12.2 µM
C=C=[CH][Sn]([c]1ccccc1)([c]1ccccc1)[c]1ccccc1 | 0.866 µM | 2.27 µM | 1.71 µM | 3.34 µM | 1.69 µM | 3.66 µM | 1.49 µM | 2.95 µM | 1.43 µM | 2.87 µM | 0.79 µM | 3.4 µM | 2.19 µM | 5.94 µM | 1.14 µM | 2.42 µM | 1.7 µM | 4.78 µM | 1.63 µM | 3.05 µM
CSc1ccc(C2=NN(C(=O)c3ccc(N)cc3)C(c3ccc(F)cc3)C2)cc1 (centres undefined) | 1.73 µM | 3.93 µM | 18.4 µM | 34.7 µM | 3.09 µM | 12.6 µM | 2.03 µM | 4.55 µM | 2.53 µM | 6.84 µM | 0.314 µM | 1.72 µM | 16.1 µM | 38.5 µM | 10.6 µM | 24 µM | 16.6 µM | 34 µM | 20.4 µM | 35.6 µM
O=P1(O)c2ccccc2CS(=O)(=O)Cc2ccccc21 | – | > 100 µM | – | > 100 µM | – | > 100 µM | – | > 100 µM | – | > 100 µM | – | > 100 µM | – | > 100 µM | – | > 100 µM | – | > 100 µM | – | > 100 µM
COc1cc(C2C(C#N)=C(N)Oc3cc4c(cc32)OCO4)cc2c1OCO2 (centres undefined) | 0.455 µM | > 100 µM | 1.57 µM | > 100 µM | 0.963 µM | 97.3 µM | 0.206 µM | > 46.6 µM | 1 µM | > 100 µM | 0.318 µM | > 100 µM | 0.103 µM | 0.553 µM | 0.362 µM | > 100 µM | 0.594 µM | > 100 µM | 0.9 µM | > 100 µM
